Results published in US8017584B2, “GD3-mimetic peptides” (Otsuka Pharmaceutical Co., Ltd., priority 2000, dated 2011).
Values joined by “and” are separate entries in the source; they are usually repeats but may differ in a detail not shown here. Identical values can stand only once.

Experiments:
[1] = test system: T-cell-rich lymphocytes / IL-2-dependent CTLL2 cells; test: Cell response test: IL-2 activity (3H thymidine up-take of CTLL2 cells) in supernatant of spleen cells of mice immunized with R4 peptide (R4-KLH); format: cell-based, mouse; details: for 3H Thymidine up-take into CTLL2 cells, mean ± SE (4 wells): mice immunized with R4 peptide; for activation of T cells: R4-KLH-immunized mice
Experimental: Using a fusion peptide R4-KLH obtained in Example 3 (4) between GD3R4 and KLH or a MAP form fusion peptide R4MAP-KLH created between GD3R4 and KLH, immunization was performed as described in (1) above.
Briefly, an emulsion mixed with an adjuvant (1:1, by volume) was administered to each member of groups of mice, each group consisting of 3 mice (CD-1), in an amount of 100 μL/mouse (for one administration (ip), peptide 30 μg/mouse) for immunization. In the case of R4-KLH, administration was performed every one week for one month, and subsequently every two weeks for one month; and in the case of R4MAP-KLH, every one week for 2 months. In any case, 4 days after the final immunization, blood was collected to thereby prepare antiserum samples.
The spleen aseptically removed from each of the above-immunized mice was minced in a 10% FCS-supplemented RPMI 1640 medium. By use of a nylon wool column, T-cell-rich lymphocytes were prepared and the cells were counted. The above medium containing the cells in an amount of 10^5 cells per 150 μL was added to each of the wells of a culture plate. PHA was added so as to attain a final concentration of 1 μg/mL. A peptide of the present invention or any of different gangliosides in PBS was added, and the mixture was incubated for 96 hours. A supernatant (100 μL) was obtained from each well. The IL-2 activity of the supernatant was determined through use of IL-2-dependent mouse cells, CTLL2. Briefly, the supernatant (100 μL) diluted 2 to 50-fold with a medium was added to the wells in an amount of 10^4 CTLL2 cells/well, followed by incubation at 37° C. for 48 hours. Subsequently, 3H-thymidine (0.5 μCi) was added to each well, followed by incubation for 6 hours. CTLL2 cells were recovered on a paper filter and counted for 3H.

GD3 antibody 4F6 [2] = test: ELISA of immobilized MAP-form GD3-mimetic peptides with anti-GD3 antibody (Example 3(3)); format: binding, mouse; details: for ELISA absorbance, Anti-GD3 antibody: MAP form 100 ng/well
Experimental: (§1) A 0.1M NaHCO3 solution containing each of the phage clones obtained in Example 1 (10^11, 10^10, or 10^9 titer/100 μL) was added to the wells of a 96-well microtiter plate (product of Nunc), for immobilization of the phage clones at room temperature for one hour. The supernatant was removed, then the wells were subjected to blocking by use of a blocking solution ([…]; TBS containing 1% BSA, 0.1% skim milk, and 0.02% Tween 20; pH 7.5) at 37° C. for four hours.
(§2) The supernatant was removed, then GD3 antibody 4F6 (100 μL), serving as a primary antibody, was added to each well for reaction under shaking at room temperature for two hours. After completion of reaction, the supernatant was removed, then the wells were washed six times with a washing solution (400 μL for each well, TBS containing 0.05% Tween 20). Subsequently, a secondary antibody (anti-mouse IgG-HRP, product of Santa Cruz Biotechnology, catalogue No. SC-2031, Lot. No. C089) which was diluted 5,000-fold by use of a blocking solution prepared in advance was added to the wells (100 μL to each well) for reaction under shaking at room temperature for one hour. After completion of reaction, the wells were washed four times with a washing solution (400 μL for each well), then a detection reagent (TMB Microwell; product of KPL, Catalogue No. 50-76-04, Lot. No. WF075) was added to the wells (100 μL to each well), and the mixture was allowed to stand for five minutes at room temperature.
(§3) 1N-Hydrochloric acid (100 μL) was added to each well for stopping the reaction. Absorbance of each well was measured at 450 nm and 620 nm, and “OD450-OD620” was calculated. A Multiscan (product of Labosystems) was used in measurement of absorbance. A well in which phages had not been immobilized served as a blank, and the absorbance of each well was determined by subtracting the blank value from the “as-measured” value.
(§4) A 0.1M NaHCO3 solution containing a GD3-mimetic peptide of the invention in the above MAP form (100 ng/100 μL) was added to the wells of a 96-well micro-titer plate, for immobilization at room temperature for one hour. Subsequently, in a manner similar to the ELISA method employed in Example 2, binding affinity of the GD3-mimetic peptide to GD3 antibody 4F6 was investigated.
(§5) Anti-GD2 antibody and anti-OAcGD3 antibody (Cerato, E., et al., Hybridoma, 16(4), 307-316 (1997)) were used as controls (these antibodies were kindly provided by from Dr. Portoukalian).

GD3 antibody 4F6 [3] = test: ELISA of immobilized phage clones with GD3 antibody 4F6 (Example 2); format: binding, mouse; details: for absorbance OD450-OD620, binding to GD3 antibody 4F6: phage clone immobilized, duplicate lines
Experimental: as §1, §2, §3

Anti-GD2 antibody = test: ELISA of immobilized MAP-form peptides with control anti-GD2 antibody; format: binding; details: MAP form 100 ng/well
Experimental: as §4, §5

[4] = stimulant 1 μg/ml, supernatant dilution 1/20
[5] = stimulant 1 μg/ml, supernatant dilution 1/50
[6] = stimulant 1 μg/ml, supernatant dilution ½
[7] = stimulant 1 μg/ml, supernatant dilution ⅕
[8] = stimulant 2 μg/ml, supernatant dilution 1/20
[9] = stimulant 2 μg/ml, supernatant dilution 1/50
[10] = stimulant 2 μg/ml, supernatant dilution ½
[11] = stimulant 2 μg/ml, supernatant dilution ⅕
[12] = stimulant 5 μg/ml, supernatant dilution 1/20
[13] = stimulant 5 μg/ml, supernatant dilution 1/50
[14] = stimulant 5 μg/ml, supernatant dilution ½
[15] = stimulant 5 μg/ml, supernatant dilution ⅕

Row | Sequence | 3H Thymidine up-take into CTLL2 cells, mean ± SE (4 wells) [1, 4] | 3H Thymidine up-take into CTLL2 cells, mean ± SE (4 wells) [1, 5] | 3H Thymidine up-take into CTLL2 cells, mean ± SE (4 wells) [1, 6] | 3H Thymidine up-take into CTLL2 cells, mean ± SE (4 wells) [1, 7] | 3H Thymidine up-take into CTLL2 cells, mean ± SE (4 wells) [1, 8] | 3H Thymidine up-take into CTLL2 cells, mean ± SE (4 wells) [1, 9] | 3H Thymidine up-take into CTLL2 cells, mean ± SE (4 wells) [1, 10] | 3H Thymidine up-take into CTLL2 cells, mean ± SE (4 wells) [1, 11] | 3H Thymidine up-take into CTLL2 cells, mean ± SE (4 wells) [1, 12] | 3H Thymidine up-take into CTLL2 cells, mean ± SE (4 wells) [1, 13] | 3H Thymidine up-take into CTLL2 cells, mean ± SE (4 wells) [1, 14] | 3H Thymidine up-take into CTLL2 cells, mean ± SE (4 wells) [1, 15] | ELISA absorbance, Anti-GD3 antibody (GD3 antibody 4F6 [2]; Serum % 12.50%) | ELISA absorbance, Anti-GD3 antibody (GD3 antibody 4F6 [2]; Serum % 25%) | ELISA absorbance, Anti-GD3 antibody (GD3 antibody 4F6 [2]; Serum % 50%) | ELISA absorbance, Anti-GD3 antibody (GD3 antibody 4F6 [2]; Serum % 100%) | absorbance OD450-OD620, binding to GD3 antibody 4F6 (GD3 antibody 4F6 [3]; 10^9 titer/well) | ELISA absorbance, Anti-GD2 antibody (Anti-GD2 antibody; Serum % 12.50%) | ELISA absorbance, Anti-GD2 antibody (Anti-GD2 antibody; Serum % 25%) | ELISA absorbance, Anti-GD2 antibody (Anti-GD2 antibody; Serum % 50%) | other results
1 | PHFDSLLYPCELLGC (PHFDSLLYPCQLLGC) [GD3R2, tested as phage clone, MAP form or peptide] | 745 ± 136 | 178 ± 38 | 2857 ± 493 | 1714 ± 239 | 694 ± 141 | 163 ± 41 | 2764 ± 322 | 1653 ± 286 | 748 ± 162 | 174 ± 32 | 2849 ± 396 | 1628 ± 245 | 0.055 | 0.105 | 0.159 | 0.264 | 0.055 and 0.034 | 0.052 | 0.071 | 0.079 | absorbance OD450-OD620, binding to GD3 antibody 4F6 (GD3 antibody 4F6 [3]; 10^10 titer/well): 0.128 and 0.109; ELISA absorbance, Anti-GD2 antibody (Anti-GD2 antibody; Serum % 100%): 0.132
2 | LAPPRPRSELVFLSV (LAPPRPRSQLVFLSV) [GD3R1, tested as phage clone, MAP form or peptide] | 949 ± 136 | 225 ± 38 | 3218 ± 716 | 1876 ± 281 | 845 ± 147 | 220 ± 40 | 3417 ± 542 | 1864 ± 327 | 901 ± 152 | 236 ± 45 | 3469 ± 612 | 1781 ± 285 | 0.083 | 0.127 | 0.137 | 0.263 | 0.017 and 0.026 | 0.065 | 0.067 | 0.095 | absorbance OD450-OD620, binding to GD3 antibody 4F6 (GD3 antibody 4F6 [3]; 10^10 titer/well): 0.067 and 0.055; absorbance OD450-OD620, binding to GD3 antibody 4F6 (GD3 antibody 4F6 [3]; 10^11 titer/well): 0.094 and 0.086; ELISA absorbance, Anti-GD2 antibody (Anti-GD2 antibody; Serum % 100%): 0.123
3 | RHAYRSMAEWGFLYS (RHAYRSMAQWGFLYS) [GD3R4, tested as phage clone, MAP form or peptide] | 2420 ± 561 | 1017 ± 182 | 6781 ± 1549 | 4413 ± 854 | 7934 ± 1031 | 2742 ± 751 | 15383 ± 2194 | 10375 ± 1708 | 8354 ± 957 | 3058 ± 568 | 18692 ± 2310 | 12657 ± 1624 | 0.144 | 0.229 | 0.309 | 0.381 | 0.109 and 0.116 | 0.061 | 0.072 | 0.103 | activation of T cells [1]: T cells have been confirmed to have activated; binding to the anti-GD3 antibody (GD3 antibody 4F6 [2]): stronger bonding to the anti-GD3 antibody; absorbance OD450-OD620, binding to GD3 antibody 4F6 (GD3 antibody 4F6 [3]; 10^10 titer/well): 0.14 and 0.102; absorbance OD450-OD620, binding to GD3 antibody 4F6 (GD3 antibody 4F6 [3]; 10^11 titer/well): 0.386 and 0.315; binding affinity to GD3 antibody 4F6 (words, FIG. 1) (GD3 antibody 4F6 [3]; phage clones): strongest binding affinity; ELISA absorbance, Anti-GD2 antibody (Anti-GD2 antibody; Serum % 100%): 0.149
4 | GLAPPDYAERFELLS [GD3R3, tested as phage clone, MAP form or peptide] | 1491 ± 364 | 682 ± 120 | 5577 ± 1063 | 2986 ± 327 | 1527 ± 337 | 736 ± 137 | 6351 ± 1314 | 3184 ± 439 | 1684 ± 375 | 812 ± 151 | 7898 ± 1496 | 3652 ± 681 | 0.176 | 0.237 | 0.357 | 0.483 | 0.05 and 0.086 | 0.077 | 0.118 | 0.036 | activation of T cells [1]: T cells have been confirmed to have activated; binding to the anti-GD3 antibody (GD3 antibody 4F6 [2]): stronger bonding to the anti-GD3 antibody; absorbance OD450-OD620, binding to GD3 antibody 4F6 (GD3 antibody 4F6 [3]; 10^11 titer/well): 0.094 and 0.108; ELISA absorbance, Anti-GD2 antibody (Anti-GD2 antibody; Serum % 100%): 0.191
